Bridge positions count the residues as written; N and C are the ends. * marks the point of attachment. Palmitoyl = CCCCCCCCCCCCCCCC(=O)*
How the values were obtained:
[1] = relative to unmodified peptide
[2] = biological target: C5 (Homo sapiens, UniProt P01031); assay: Biacore multi-cycle kinetics on human C5; format: binding; details: chemical knob domains and variants; result in words
Procedure, shortened: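 SPR, multi-cycle kinetics: human C5 amine-coupled to CM5 chip (2000-3000 RU, pH 4.5 acetate). Serial peptide dilutions in HBS-EP, 240 s contact, 6000 s dissociation; 2M MgCl2 regeneration. Reference-subtracted data fitted to single-site binding model.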

[3] = In vivo pharmacokinetics after intravenous bolus; details: rat, plasma; 1 mg/kg intravenous; male Sprague-Dawley rats; read-out: plasma clearance [C1p]
Description: Plasma pharmacokinetics was studied for each peptide in male Sprague-Dawley rats of a body weight between 324 and 425 g. Drug was administered intravenously via the tail vein. […] Blood samples were taken at 7 minutes, 15 minutes, 30 minutes, followed by 1, 2, 4, 8 and 24 hours. Blood was collected into Li Heparin tubes and spun to prepare plasma samples for bioanalysis. Bioanalytical data was analysed on an individual animal basis using Pharsight Phoenix 64 Build 8.1. Non-compartmental analysis was conducted and mean pharmacokinetic parameters for each drug calculated.

C5, sequence (P01031 19-1676): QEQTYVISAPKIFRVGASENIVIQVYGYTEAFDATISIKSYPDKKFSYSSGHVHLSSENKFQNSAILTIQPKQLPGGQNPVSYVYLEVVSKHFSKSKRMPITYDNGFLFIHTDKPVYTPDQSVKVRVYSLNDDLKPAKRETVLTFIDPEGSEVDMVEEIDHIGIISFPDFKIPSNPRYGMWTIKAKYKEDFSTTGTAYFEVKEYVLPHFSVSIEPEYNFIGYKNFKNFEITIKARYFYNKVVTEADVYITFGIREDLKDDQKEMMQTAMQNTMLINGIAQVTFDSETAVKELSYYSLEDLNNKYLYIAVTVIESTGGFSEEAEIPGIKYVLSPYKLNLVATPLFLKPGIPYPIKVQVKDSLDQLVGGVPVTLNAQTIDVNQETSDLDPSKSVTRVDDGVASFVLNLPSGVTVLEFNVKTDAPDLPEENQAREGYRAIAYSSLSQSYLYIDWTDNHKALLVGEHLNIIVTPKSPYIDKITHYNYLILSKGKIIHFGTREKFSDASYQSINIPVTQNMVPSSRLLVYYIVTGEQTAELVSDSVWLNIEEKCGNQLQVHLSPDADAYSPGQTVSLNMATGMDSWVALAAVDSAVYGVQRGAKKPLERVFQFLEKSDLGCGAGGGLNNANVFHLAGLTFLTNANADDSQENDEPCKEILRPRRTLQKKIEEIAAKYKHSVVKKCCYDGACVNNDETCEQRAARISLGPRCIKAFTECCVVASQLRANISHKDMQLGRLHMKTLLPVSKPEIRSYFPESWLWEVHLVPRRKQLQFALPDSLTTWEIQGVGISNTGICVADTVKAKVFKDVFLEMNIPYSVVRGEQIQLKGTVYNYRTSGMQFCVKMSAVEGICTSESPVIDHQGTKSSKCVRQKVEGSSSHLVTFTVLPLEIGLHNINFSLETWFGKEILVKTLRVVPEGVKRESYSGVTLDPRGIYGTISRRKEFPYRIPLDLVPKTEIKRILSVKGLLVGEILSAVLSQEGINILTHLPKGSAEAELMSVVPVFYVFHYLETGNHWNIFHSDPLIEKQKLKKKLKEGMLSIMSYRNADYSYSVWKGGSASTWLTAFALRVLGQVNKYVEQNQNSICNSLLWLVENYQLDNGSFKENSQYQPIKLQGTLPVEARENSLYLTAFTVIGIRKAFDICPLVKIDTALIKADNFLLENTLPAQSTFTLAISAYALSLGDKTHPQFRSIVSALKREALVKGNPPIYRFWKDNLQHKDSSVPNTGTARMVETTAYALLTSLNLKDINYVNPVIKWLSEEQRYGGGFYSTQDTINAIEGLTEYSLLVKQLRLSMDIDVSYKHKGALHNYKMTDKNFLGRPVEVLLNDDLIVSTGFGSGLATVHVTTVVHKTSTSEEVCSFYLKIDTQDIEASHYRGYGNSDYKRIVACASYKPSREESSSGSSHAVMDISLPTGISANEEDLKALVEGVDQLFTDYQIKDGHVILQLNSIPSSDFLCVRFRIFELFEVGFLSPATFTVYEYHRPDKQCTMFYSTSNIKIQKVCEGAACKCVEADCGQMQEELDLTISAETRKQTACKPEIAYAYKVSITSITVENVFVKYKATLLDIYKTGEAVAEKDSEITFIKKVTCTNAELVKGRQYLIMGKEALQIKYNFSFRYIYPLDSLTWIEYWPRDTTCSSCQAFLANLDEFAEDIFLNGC

Palmitoyl-GCPPGYKSGVDCSPGSECKWGCYAVDGRRYGGYGADSGVGS-OH (disulfide 2-18, 12-22) [K57 chemFE-Palmitoyl]
solubility [1]: reduced solubility | binding to human C5 [2]: unaffected | clearance [3]: 0.8 mL/min/kg
